Here are results for 39 molecules from US7291641B2, “Derivatives of heterocycles with 5 members, their preparation and their use as medicaments” (Societe de Conseils de Recherches et d'Applications …, priority 1999, dated 2007).

Each structure is given as a SMILES string. Counter-ions that a name gives are not always drawn. A value given as a limit tells only on which side of the number the result lay.

A word on the melting point: it is the temperature of the solid-liquid transition. As to `Fc1ccc(-c2c[nH]c([C@@H](NC3CCCCC3)C3CCCCC3)n2)cc1` [Example 283, N-{(S)-cyclohexyl[4-(4-fluorophenyl)-1H-imidazol-2-yl]methyl}-cyclohexanamine], the melting point was in the range of 260 to 262 °C.
As for `N[C@H](Cc1ccccc1)c1nc(-c2ccc(F)cc2)c[nH]1` (as salt: hydrochloride) [Example 324, (1R)-1-[4-(4-fluorophenyl)-1H-imidazol-2-yl]-2-phenylethanamine], the melting point lay within 173 to 180 °C.
As for `Fc1ccc(-c2c[nH]c([C@@H](NC3CCC3)C3CCCCC3)n2)cc1F` [Example 262, N-{(S)-cyclohexyl[4-(3,4-difluorophenyl)-1H-imidazol-2-yl]methyl}cyclobutanamine], the melting point is 200 to 202 °C.
In the case of `CN(Cc1nc(-c2ccccc2)c(-c2ccccc2)[nH]1)C(=O)OC(C)(C)C` [Example 156, tert-butyl (4,5-diphenyl-1H-imidazol-2-yl)methyl(methyl)carbamate], the melting point was in the range of 170 to 172 °C.
Regarding `FC(F)(F)c1cccc(-c2c[nH]c([C@@H](NCC3CCCCC3)C3CCCCC3)n2)c1` [Example 305, (S)-1-cyclohexyl-N-(cyclohexylmethyl)-1-{4-[3-(trifluoromethyl)-phenyl]-1H-imidazol-2-yl}methanamine], the melting point was found to be 143.9 °C.
Take `CCCCOC(=O)NCCc1nc(-c2ccc(-c3cccc(Cl)c3)cc2)c[nH]1` [Example 443, butyl 2-[4-(3′-chloro-1,1′-biphenyl-4-yl)-1H-imidazol-2-yl]ethylcarbamate]: the melting point worked out at 142.6 °C.
In turn, `CCCCOC(=O)NCCc1nc(-c2ccc(-c3ccccc3F)cc2)c[nH]1` [Example 396, butyl 2-[4-(2′-fluoro-1,1′-biphenyl-4-yl)-1H-imidazol-2-yl]ethylcarbamate] showed a melting point of 113.8 °C.
Molecule `CCCCCCC(NC1CCCCC1)c1nc(-c2ccc(F)cc2)c[nH]1` (stereo not drawn) [Example 38, N-{1-[4-(4-fluorophenyl)-1H-imidazol-2-yl]heptyl}cyclohexanamine] registered a melting point of 190 to 192 °C.
For `CC(C)COC(=O)NCCc1nc(-c2ccc(-c3ccccc3)cc2)c[nH]1` [Example 239, 4-(2-{2-[(isobutoxycarbonyl)amino]ethyl}-1H-imidazol-4-yl)-1,1′-biphenyl], the melting point was in the range of 134 to 135 °C.
Regarding `NC(Cc1c[nH]c2ccc(F)cc12)c1nc(-c2ccc(F)cc2)c[nH]1` (racemic) (as salt: hydrochloride) [Example 253, (R,S)-2-(5-fluoro-1H-indol-3-yl)-1-[4-(4-fluorophenyl)-1H-imidazol-2-yl]ethylamine], the melting point lay within 220 to 222 °C.
In turn, `Fc1ccc(-c2c[nH]c([C@@H](NC3CCC3)C3CCCCC3)n2)cc1` [Example 35, N-{(S)-cyclohexyl[4-(4-fluorophenyl)-1H-imidazol-2-yl]methyl}cyclobutanamine] had a melting point of 170 to 172 °C.
With `CCCCCCC(NCC(C)C)c1nc(-c2ccccc2)c[nH]1` (racemic) (as salt: acetate) [Example 234, (R,S)-N-isobutyl-1-(4-phenyl-1H-imidazol-2-yl)-1-heptanamine], the melting point fell in the range of 70 to 72 °C.
Turning to `c1ccc(OCCN[C@H](Cc2c[nH]c3ccccc23)c2nc(-c3ccccc3)cs2)cc1` [Example 112, (1R)-2-(1H-indol-3-yl)-N-(2-phenoxyethyl)-1-(4-phenyl-1,3-thiazol-2-yl)ethanamine], the melting point lay in the range of 124 to 126 °C.
On to `c1ccc(CNCc2nc(-c3ccc(-c4ccccc4)cc3)c[nH]2)cc1` (as salt: hydrochloride) [Example 168, N-benzyl(4-[1,1′-biphenyl]4-yl-1H-imidazol-2-yl)methanamine], for which the melting point was more than 250 °C.
As to `CCCCOC(=O)NCCc1nc(-c2ccc(-c3ccccc3Cl)cc2)c[nH]1` [Example 454, butyl 2-[4-(2′-chloro-1,1′-biphenyl-4-yl)-1H-imidazol-2-yl]ethylcarbamate], the melting point turned out to be 99.7 °C.
To `CCCCCCC(NC1CCCCC1)c1nc(-c2ccc(Cl)c(Cl)c2)c[nH]1` (racemic) (as salt: hydrochloride) [Example 250, (R,S)-N-{1-[4-(3,4-dichlorophenyl)-1H-imidazol-2-yl]heptyl}-cyclohexanamine] belongs 194 °C; to `C[C@@H](N)c1nc(-c2ccccc2)c[nH]1` (as salt: hydrochloride) [Example 219, (1R)-1-(4-phenyl-1H-imidazol-2-yl)ethanamine], 178 to 181 °C; to `c1ccc(CN(Cc2ccccc2)Cc2nc(-c3ccc(-c4ccccc4)cc3)c[nH]2)cc1` [Example 144, N,N-dibenzyl(4-[1,1′-biphenyl]4-yl-1H-imidazol-2-yl)methanamine], 70 to 74 °C.
`c1ccc(CC[C@@H](NCc2ccccc2)c2nc(-c3ccc(-c4ccccc4)cc3)c[nH]2)cc1` [Example 170, (1R)-N-benzyl-1-(4-[1,1′-biphenyl]-4-yl-1H-imidazol-2-yl)-3-phenyl-1-propanamine] registered a melting point of 210 to 213 °C.
In the case of `CC(C)(C)OC(=O)N[C@H](CC1CCCCC1)c1nc(-c2ccccc2)c[nH]1` [Example 130, tert-butyl (1R)-2-cyclohexyl-1-(4-phenyl-1H-imidazol-2-yl)ethylcarbamate], the melting point is 184 to 185 °C.
With `CCCCC(NCc1ccccc1)c1nc(-c2ccccc2)c[nH]1` (racemic) [Example 186, (R,S)-N-benzyl-1-(4-phenyl-1H-imidazol-2-yl)-1-pentanamine], the melting point lay within 200 to 202 °C.
Turning to `Fc1cccc(-c2c[nH]c([C@@H](NCC3CCCCC3)C3CCCCC3)n2)c1` (as salt: hydrochloride) [Example 312, (S)-1-cyclohexyl-N-(cyclohexylmethyl)-1-[4-(3-fluorophenyl)-1H-imidazol-2-yl]methanamine], the melting point fell in the range of 180 to 186 °C.
Under `CCCCCCNCCc1nc(-c2ccc(-c3ccccc3)cc2)c[nH]1` [Example 176, N-[2-(4-[1,1′-biphenyl]-4-yl-1H-imidazol-2-yl)ethyl]-1-hexanamine] stands 152 to 154 °C; under `CNCc1nc(-c2ccc(-c3ccccc3)cc2)c[nH]1` (as salt: hydrochloride) [Example 155, (4-[1,1′-biphenyl]-4-yl-1H-imidazol-2-yl)-N-methylmethanamine], 218 to 220 °C; under `O=C(NCCc1nc(-c2ccc(-c3ccccc3)cc2)c[nH]1)OCc1ccccc1` [Example 237, 4-[2-(2-{[(benzyloxy)carbonyl]amino}ethyl)-1H-imidazol-4-yl]-1,1′-biphenyl], 134 to 136 °C.
`CCCCCCC(NC1CCC1)c1nc(-c2ccc(F)cc2)c[nH]1` (racemic) (as salt: hydrochloride) [Example 84, (R,S)-N-{1-[4-(4-fluorophenyl)-1H-imidazol-2-yl]heptyl}-cyclobutanamine] yielded a melting point of 144 to 146 °C.
Turning to `CCCCCCC(N)c1nc(-c2ccccc2)c[nH]1` (racemic) (as salt: hydrochloride) [Example 142, (R,S)-1-(4-phenyl-1H-imidazol-2-yl)heptylamine], the melting point lay in the range of 131 to 134 °C.
On to `CCCCOC(=O)NCCc1nc(-c2ccc(-c3cccc(OC)c3)cc2)c[nH]1` [Example 461, butyl 2-[4-(3′-methoxy-1,1′-biphenyl-4-yl)-1H-imidazol-2-yl]ethylcarbamate], for which the melting point lay within 112 to 113 °C.
For the molecule `CCCCOC(=O)NCCc1nc(-c2ccc(F)cc2)c[nH]1` [Example 251, butyl 2-[4-(4-fluorophenyl)-1H-imidazol-2-yl]ethylcarbamate], the melting point was found to be 87 °C.
As to `c1ccc(CN[C@@H](Cc2c[nH]c3ccccc23)c2nc(-c3ccccc3)c[nH]2)cc1` [Example 93, (1S)-N-benzyl-2-(1H-indol-3-yl)-1-(4-phenyl-1H-imidazol-2-yl)ethanamine], the melting point was 118 to 120 °C.
With `CC(C)(C)OC(=O)NC(C)(C)c1nc(-c2ccccc2)c[nH]1` [Example 127, tert-butyl 1-methyl-1-(4-phenyl-1H-imidazol-2-yl)ethylcarbamate], the melting point lay in the range of 130 to 132 °C.
With `CCCCOC(=O)NCCc1nc(-c2ccc(-c3cc(F)ccc3F)cc2)c[nH]1` [Example 460, butyl 2-[4-(2′,5′-difluoro-1,1′-biphenyl-4-yl)-1H-imidazol-2-yl]ethylcarbamate], the melting point came to 109.5 °C.
With `CCCCCCC(N)c1nc(-c2ccccc2OC)c[nH]1` (racemic) (as salt: hydrochloride) [Example 185, (R,S)-1-[4-(2-methoxyphenyl)-1H-imidazol-2-yl]heptylamine], the melting point was 238 to 240 °C.
Consider `CCCCOC(=O)NCCc1nc(-c2ccc(CC(C)C)cc2)c[nH]1` [Example 445, butyl 2-[4-(4-isobutylphenyl)-1H-imidazol-2-yl]ethylcarbamate], for which the melting point was determined as 95.5 °C.
`Fc1ccc(-c2c[nH]c(C(Cc3c[nH]c4ccc(F)cc34)NC3CCC3)n2)cc1` (racemic) (as salt: hydrochloride) [Example 256, (R,S)-N-{2-(5-fluoro-1H-indol-3-yl)-1-[4-(4-fluorophenyl)-1H-imidazol-2-yl]ethyl}cyclobutanamine] had a melting point of 180 to 190 °C.
The molecule `Fc1ccc(-c2c[nH]c([C@@H](NCC3CCCCC3)C3CCCCC3)n2)cc1` [Example 293, (S)-1-cyclohexyl-N-(cyclohexylmethyl)-1-[4-(4-fluorophenyl)-1H-imidazol-2-yl]methanamine] showed a melting point of 184.8 °C.
To `CCCCCCOC(=O)NCCc1nc(-c2ccc(N3CCCC3)cc2)c[nH]1` [Example 384, hexyl 2-[4-(4-pyrrolidin-1-ylphenyl)-1H-imidazol-2-yl]ethylcarbamate] belongs 110 to 114 °C; to `CCCCCCC(NC(C)C)c1nc(-c2ccccc2)c[nH]1` (racemic) [Example 248, (R,S)-N-isopropyl-N-[1-(4-phenyl-1H-imidazol-2-yl)heptyl]amine], 114 to 116 °C.
`CCC[C@@H](N)c1nc(-c2ccccc2)c[nH]1` (as salt: hydrochloride) [Example 211, (1R)-1-(4-phenyl-1H-imidazol-2-yl)-1-butanamine] registered a melting point of 182 to 184 °C.
